From patent publication US9233913B2, “Amino acid derivatives for the treatment of neuropathic pain” (priority 2009, dated 2016)
Read-outs that look alike come from different tables or passages of the source.

Key:
Gabapentin binding site [1] = molecular target: T1, Gabapentin binding site (Rattus norvegicus, UniProt P54290); test: [3H]-gabapentin binding assay, Method 2 (crude rat brain membranes); details: 20 nM [3H]-gabapentin; for % inhibition 1 μM: compound 1 μM; for % inhibition 10 μM: compound 10 μM
Protocol: Membrane preparation: cortices from 5 rats were homogenized in a 0.32 M sucrose solution containing 10 mM HEPES/KOH. Suspensions were centrifuged for 10 minutes at 2500×g and the supernatants were centrifuged at 48000×g for 20 minutes. […] The final pellets were re-suspended in 10 mM HEPES/KOH. Protein concentration was determined using a BCA kit from Pierce (Rockford, Ill.). The quality of the preparation was assessed in a binding assay to gabapentin.
Binding assay: in 96-well plates, the selected compounds were incubated in 10 mM HEPES/KOH pH 7.4 at concentrations of 10 and 1 μM for 30 minutes at room temperature in the presence of 20 nM [^3H]-gabapentin and rat brain membranes (300 μg/mL of proteins). Radioactivity was assessed after filtration with the Tomtec cell harvester using a glass fiber filter A. Counts were obtained using the Microbeat Trilux counter.
[formula] wherein: [total binding]s is the total binding of [^3H]-gabapentin in the presence of the compound; [non-specific binding]c is the non specific binding of [^3H]-gabapentin in the presence of 100 μM cold gabapentin (c=control); and [total binding]c is the total binding of [^3H]-gabapentin alone.

Gabapentin binding site [2] = molecular target: T1, Gabapentin binding site; details: Method 1, rat brain membranes, 3H-gabapentin; for % inhibition 1 μM: compound 1 μM; for % inhibition 10 μM: compound 10 μM
Protocol: Materials: Gabapentin is from TRC, [^3H]-Gabapentin is from GE Healthcare, and Meltilex A sheets (melt-on scintillator sheets) are from Perkin Elmer. Rat brain membranes are prepared in-house by conventional methods.
All solutions are prepared for the assay just before use, except for the membrane dilution. […] The final compound concentration in the assay is 1, 10 and 100 μM. The same is done with a solution not containing the test articles as control. The test plate is then incubated for 30 minutes at room temperature with agitation. The binding reaction is terminated using a Tomtec cell harvester machine (Mach III M-FP-1). A meltilex sheet is placed on the filtermat (harvest from the assay) and is allowed to melt in the oven at 65° C. for 1 to 4 min. The filter is inserted in the plastic pouch, which is sealed and allowed to cool for 1 h before counting with a Microbeta Trilux counter (Perkin Elmer).
Results are calculated using the count per minutes (CPM) obtained for each sample with the Trilux. The CPM obtained for the control diluent represents the 100% binding of ^3H-Gabapentin to membrane. The CPM obtained for the control gabapentin 100 μM represents the 0% binding. The % of binding for each compound is calculated by the formula: […]

[3] = system: Diet-Induced Obesity (DIO) mouse model; test: Diet-Induced Obesity (DIO) mouse model: glycemia, insulin, body weight; type: in vivo; details: DIO mice; 100 mg/kg BID oral gavage, 7 days
Protocol: The objective of this study is to determine the effect of the compounds of the invention, namely Compounds 6A, 6B and 18, glycemia, insulin and body weight gain in a Diet-Induced Obesity (DIO) mouse model. Results are compared with (2S,3R,4S)-4-hydroisoleucine (positive control) and vehicle (negative control).
C57BL/6 mice are tested at 17-18 weeks of age and fed a high fat diet (60% of calories from fat) for 8 weeks. Fasted glycemia and body weight values are used to randomize the mice into control and treatment groups (n=8). The animals are treated twice dally (BID) (once on 7th day) by oral gavage with 4-hydroxyisoleucine, Compounds 6A, 6B and 18 (100 mg per kg of body weight), and the control group receive vehicle (water) alone. The animals are treated for 7 days.
Oral glucose Tolerance Test (OGTT) is performed at 5 hours±30 minutes Post starvation (day 0 only) or Post AM test article administration (for day 7). Blood samples are collected via tail vein for glucose determination prior to glucose challenge (Pre-OGTT) and at 5, 10, 20, 30, 60, 90 and 120 minutes post-glucose administration. Glucose determination is perfomed using a hand held glucometer (Model OneTouch Ultra, LifeScan).
A second blood sample is also collected Pre-OGTT and at 5, 10, 60 and 120 minutes Post-OGTT for insulin determination. Insulin determination is done using an enzyme Immunoassay kit (Mecodia Ultrasensitive Mouse Insulin ELISA, ALPCO Diagnostics, Wndham, N.H.).
Body weight of the mice is measured at arrival, randomization, and on days 0, 3 and 7 of treatment. At the end of the study, the epididymal fat pads were isolated and weighed. Data are expressed as mean±SEM of body weight and mean±SEM of fat pad weight.

[4] = Pharmacokinetic profile in mice; type: in vivo; details: mouse, plasma, read-out: Bioavailability (% F)
Protocol: Compounds are tested for pharmacokinetic profile, including oral bioavailability in mice using the following procedure. Bioavailability estimates are performed after administration of 100 mg/kg of Compound 6B and 50 mg/kg of Compound 18 either Intravenously (IV) or orally (PO). Four animals per time point, per mode of administration are used. At each specific time point following drug administration, a blood sample is collected terminally (under isoflurane anesthesia) via cardiac puncture from each the 4 animals. Samples are collected at pre-dose and at 5, 15, 30, and 60 minutes and at 2, 4, 6, 8, 14 and 24 hours post oral administration and at pre-dose and 2, 5, 15, 30, and 60 minutes and 2, 4, 8, 14 and 24 hours post intravenous administration. Blood samples are collected into tubes containing K3-EDTA as anticoagulant, kept on ice until centrifugation at 4° C. at a minimum speed of 3000 rpm (1620G) for 10 min. Plasma samples are harvested into polypropylene tubes, immediately placed on dry ice and stored at −80° C.
Compounds in mouse plasma are extracted using protein precipitation. Quantitation of the compounds in mouse plasma matrix is achieved using LC-MS detection. Sample concentration is calculated using a calibration curve. FIGS. 3A and 3B show mouse PK curves in log scale for Compounds 6B and 18 respectively. […]

[5] = Pharmacokinetic profile in dogs; type: in vivo; details: one female Beagle dog
Protocol: The pharmacokinetic profile of Compound 18 is evaluated in one female Beagle dog. One single oral and one single IV dose of 25 mg/kg separated by a wash-out period are administered to the dog to get key preliminary information about the pharmacokinetics and oral bioavailability of Compound 18.

[6] = system: metrazole-induced clonic convulsions and mortality; test: Metrazole-induced convulsions model; details: metrazole 100 mg/kg, 100% = score 9

T1 sequence (P54290 25-1091): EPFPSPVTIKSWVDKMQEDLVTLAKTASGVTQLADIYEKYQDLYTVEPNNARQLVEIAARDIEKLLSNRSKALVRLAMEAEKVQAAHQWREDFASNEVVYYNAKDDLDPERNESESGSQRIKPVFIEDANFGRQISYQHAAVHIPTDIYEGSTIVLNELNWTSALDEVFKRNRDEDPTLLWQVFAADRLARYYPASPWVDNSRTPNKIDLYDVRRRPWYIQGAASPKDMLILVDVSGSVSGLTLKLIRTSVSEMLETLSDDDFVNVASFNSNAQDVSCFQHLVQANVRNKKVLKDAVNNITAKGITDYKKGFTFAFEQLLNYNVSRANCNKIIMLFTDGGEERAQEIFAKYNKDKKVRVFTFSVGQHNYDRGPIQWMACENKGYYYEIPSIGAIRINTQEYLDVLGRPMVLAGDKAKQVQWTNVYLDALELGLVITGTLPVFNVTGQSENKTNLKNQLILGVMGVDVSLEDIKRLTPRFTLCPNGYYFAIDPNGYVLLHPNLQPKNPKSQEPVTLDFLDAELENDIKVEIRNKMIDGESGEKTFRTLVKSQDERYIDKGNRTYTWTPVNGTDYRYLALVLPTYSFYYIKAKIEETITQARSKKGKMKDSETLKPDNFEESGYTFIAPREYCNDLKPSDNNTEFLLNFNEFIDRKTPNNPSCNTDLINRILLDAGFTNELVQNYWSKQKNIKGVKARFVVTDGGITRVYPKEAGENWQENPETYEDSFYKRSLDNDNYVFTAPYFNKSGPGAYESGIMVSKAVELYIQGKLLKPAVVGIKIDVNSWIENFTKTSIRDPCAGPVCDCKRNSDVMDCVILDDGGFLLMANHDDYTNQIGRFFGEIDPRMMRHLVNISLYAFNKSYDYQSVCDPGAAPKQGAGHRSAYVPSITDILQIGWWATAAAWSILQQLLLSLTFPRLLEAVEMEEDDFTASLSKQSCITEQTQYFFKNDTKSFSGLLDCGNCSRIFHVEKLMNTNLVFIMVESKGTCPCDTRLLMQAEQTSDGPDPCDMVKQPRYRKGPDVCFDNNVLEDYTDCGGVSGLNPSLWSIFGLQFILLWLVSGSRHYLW

Compound | % inhibition 1 μM (Gabapentin binding site [1]) | % inhibition 10 μM (Gabapentin binding site [1]) | % inhibition 1 μM (Gabapentin binding site [2]) [%] | % inhibition 10 μM (Gabapentin binding site [2]) [%] | effect on glycemia compared to control [3] | other results
N[C@@H](Cc1ccco1)C(=O)O [(2S)-Compound, (2S)-3-(2-furyl)alanine] | 61% (±8) | 16% (±3) |  |  |  | 
C[C@@H]([C@H](C)O)[C@H](N)C(=O)O [Compound 4-HO-Ile, (2S,3R,4S) 4-hydroxyisoleucine, reference compound] |  |  | 13 | 51 |  | 
N[C@@H](CC1CCCO1)C(=O)O (stereo partly shown) [Compound 6] |  |  | 82 | 92 |  | 
N[C@@H](C[C@H]1CCCO1)C(=O)O [Compound 7] | 19% (±4) | 1% (±1) |  |  | neutral or beneficial effect | effect on insulin compared to control [3]: neutral or beneficial effect
N[C@@H](C[C@@H]1CCCO1)C(=O)O [Compound 8] | 11% (±1) | 0% (±2) |  |  | neutral or beneficial effect | bioavailability ([4]; 100 mg/kg IV or PO): ~100%; effect on insulin compared to control [3]: neutral or beneficial effect
N[C@H](C(=O)O)[C@@H]1CCCC[C@H]1O [Compound 18] | 21% (±3) | 6% (±1) | 87 | 90 | no effect | bioavailability ([5]; in vivo, 25 mg/kg oral and IV): 97%; absorption following oral administration ([5]; 25 mg/kg oral): rapidly and very well absorbed; first pass effect ([5]; 25 mg/kg oral): does not demonstrate any significant first pass effect; terminal half live ([5]; 25 mg/kg single dose): around 7 hours; % Prevention of convulsions in mice ([6]; dose 200 mg/kg): 67%; bioavailability ([4]; 50 mg/kg IV or PO): 88.4%
CN1C(=O)CN=C(c2ccccc2)c2cc(Cl)ccc21 [Diazepam, diazepam] |  |  |  |  |  | % Prevention of convulsions in mice ([6]; dose 1 mg/kg): 67%
NCC1(CC(=O)O)CCCCC1 [Gabapentin] |  |  |  |  |  | % Prevention of convulsions in mice ([6]; dose 100 mg/kg): 67%
